Calls of active or inactive are those of the source. No cut-off for these calls is given here.
tested on: Plasmodium falciparum; test: Antimalarial activity against Plasmodium falciparum 3D7 at 10 uM; format: functional, organism-based

SMILES | Activity
COC(=O)C1=CO[C@@H](O[C@@H]2O[C@H](CO)[C@@H](O)[C@H](O)[C@H]2O)[C@H]2[C@@H]1[C@H](O)C[C@]2(C)OC(C)=O | inactive
COC(=O)[C@@H](CO)[C@H]1[C@H](O)C[C@](C)(O)[C@H]1C(=O)O | inactive
COC(=O)[C@@H](CO)[C@H]1[C@H](O)C[C@](C)(OC(C)=O)[C@H]1C(=O)O | inactive
COC(=O)[C@@H]1COC(=O)[C@H]2[C@@H]1[C@@H](O)C[C@@]2(C)OC(C)=O | inactive
